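Protocol summary: plate cells (96-well), add compound at 5 concentrations, incubate 48 h, interpolate endpoints linearly. GI50: concentration for 50% inhibition of growth. At the TGI there is no net growth.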
Experiments:
Assay in all cases: NCI anticancer screen, dose series, 48 h
[1] = test system: K-562 leukemia
[2] = test system: OVCAR-3 ovarian
[3] = test system: HCT-116 colon
[4] = test system: TK-10 renal
[5] = test system: SNB-19 CNS
[6] = test system: HCC-2998 colon
[7] = test system: ACHN renal
[8] = test system: PC-3 prostate
[9] = test system: MALME-3M melanoma
[10] = test system: IGROV1 ovarian

Compound | GI50 [1] [nM] | TGI [1] [µM] | GI50 [2] [nM] | TGI [2] [µM] | GI50 [3] [nM] | TGI [3] [µM] | GI50 [4] [µM] | TGI [4] [µM] | GI50 [5] [µM] | TGI [5] [µM] | GI50 [6] [nM] | TGI [6] [µM] | GI50 [7] [nM] | TGI [7] [µM] | GI50 [8] [nM] | TGI [8] [µM] | GI50 [9] [nM] | TGI [9] [µM] | GI50 [10] [nM] | TGI [10] [µM]
CC1(C)N=C(N)N=C(N)N1c1ccc(CCCCc2ccc(S(=O)(=O)F)cc2)c(Cl)c1 | 62.8 | 17.9 | 851 | 17.4 | 48.3 | 18.9 | 0.848 | 20.3 | 0.773 | 19.1 | 884 | 20.9 | 789 | > 100 | 49.3 | 15.9 | 12000 | 35.9 | 59.2 | 21.5
CN1CCC(n2cnc(-c3ccc(F)cc3)c2-c2ccnc(N)n2)CC1 | 11600 | > 25 | 11000 | > 25 | 8190 | > 25 | 7.89 | > 25 | 10.3 | > 25 | 8980 | > 25 | 5710 | > 25 | 9280 | > 25 | 8770 | > 25 | 6480 | > 20.7
CC(=O)Oc1ccccc1C(=O)/C=C/c1cccc([N+](=O)[O-])c1 | 3140 | > 100 | 2600 | 6.17 | 1660 | 3.07 |  |  | 4.43 | 15.3 | 2300 | 4.97 | 2290 | 4.99 | 3690 | 15.3 | 13600 | 30.5 |  | 
CCN1C(=O)N(CC)C2C1NN=c1s/c(=C\c3ccccc3Br)c(=O)n12 (centres undefined) | 32.9 | > 100 | 26.6 | 0.0764 | 30.2 | 11.6 | 12.5 | > 100 | 0.052 | > 67.9 | 39.2 | 4.12 | 43.7 | > 61.6 | 38.3 | 44.5 | 1120 | 33.7 | 40.8 | 21.8
COC(=O)c1nc(-c2ccccc2)oc1S(=O)(=O)n1nc(C)cc1N | 2130 | 6.98 | 2030 | 3.99 | 4730 | 17.6 | 11.3 | 24.6 | 15.6 | 34.3 | 18200 | 32.2 | 1710 | 3.11 | 18300 | 33.5 | 1780 | 4.06 | 15700 | 36.5
O=C(Oc1cccnc1)c1ccsc1Nc1ccnc(C(F)(F)F)c1 | 3740 | > 100 | 8760 | > 100 | 3950 | > 100 | 4.91 | 93.7 | 20.7 | > 100 | 11000 | 24 | 17700 | 95.8 | 9240 | 73.2 | 45600 | > 100 | 5240 | > 100
CN(C)CC1CCCC1=O (centres undefined) |  | 0.549 |  | 2.91 |  | 2.78 |  | 8.04 |  | 50 |  | 4.44 |  | 7.08 |  | 22.6 |  | 2.57 |  | 21.5
CCCCCn1sc(=O)n(Cc2ccc(CNC(=O)OCc3ccc4cccc(O)c4n3)cc2)c1=O | 846 | 15.7 | 1260 | 2.67 | 419 | 2.69 | 1.19 | 3.05 | 4.44 | 16.7 | 2090 | 4.52 | 1230 | 2.47 | 1220 | 2.76 | 1560 | 3 | 1170 | 2.65
CCN1C(=O)N(CC)C2C1NN=c1s/c(=C3\C(=O)N(CCc4ccccc4)c4ccccc43)c(=O)n12 (centres undefined) | 353 | > 100 | 291 | 0.901 | 347 | 1.4 | 4.22 | 29.2 | 0.845 | 19.6 | 1150 | > 25 | 767 |  | 415 | > 21.8 | 1040 | 20 | 672 | 
Cn1cc(-c2nonc2-c2cn(C)c3ccccc23)c2ccccc21 | 342 | > 100 | 402 | 3.42 | 610 | > 100 | 6.23 | > 100 | 0.91 | > 100 | 3070 | > 100 | 1470 | > 100 | 1420 | > 100 | 1060 | > 100 | 1530 | > 100
CN(C)c1ccc(N=Nc2ccncc2)cc1 |  | > 100 |  | > 100 |  | > 100 |  | > 100 |  | > 100 |  | 92.6 |  | > 100 |  | > 100 |  | > 100 |  | > 100
COc1ccc(/C=N/NC(=O)Cn2c(-c3ccc(S(C)(=O)=O)cc3)nc3cc(Cl)ccc32)cc1 | 343 | > 50 | 367 | > 50 | 445 | > 50 | 4.7 | > 50 | 1.53 | > 50 | 1850 | 12.5 | 2130 | > 50 | 674 | > 50 | 2300 | 46.4 | 3630 | > 50
COc1cc(/C=C/[N+](=O)[O-])cc(Br)c1OC | 2210 | > 100 | 3230 | 10.2 | 1780 | 3.22 | 3.52 | 11.5 | 6.93 | 19.2 | 1710 | 3.15 | 2500 | 6.49 | 3500 | 13.2 | 2610 | 8.13 | 1840 | 4.54

From PubChem BioAssay (NCI)
